Reference: US20160206688A1, “METHODS FOR TREATING BACTEREMIA AND OSTEOMYELITIS USING ORITAVANCIN” (THE MEDICINES COMPANY, priority 2013, published 2016)
Values after ≈ are worked out from the molar mass of the structure shown. Where two headings read alike, the source gives them in different places.

Key:
Assay in all cases: Broth microdilution MIC, European bacteraemia isolates 2010-2012
E. faecium = type: cell-based, Enterococcus faecium; details: for % Resistant, CLSI / % Susceptible, CLSI: CLSI M100-S23 breakpoints; for MIC90 / MIC50: Enterococcus faecium; for MIC90 / MIC50 / MIC 50% / MIC Range / MIC 90%: Table 2; for MIC90: read-out: MIC 90%; for MIC50: read-out: MIC 50%; for % Resistant, EUCAST / % Susceptible, EUCAST: EUCAST 2013 breakpoints
Procedure: (§1) A total of 2,904 clinical strains responsible for documented bacteremia among unique hospitalized patients in 38 hospitals in 11 European Union countries. Israel, Russia, Turkey and Ukraine were included in this study (2010-2012). Isolates were submitted to a central monitoring laboratory (JMI Laboratories, North Liberty. Iowa. USA), following previously established protocols. Bacterial species identification was performed by using an automated system (Vitek®2; bioMèrieux, Hazelwood, Mo., USA) or conventional biochemical algorithms, as required.
(§2) Isolates were tested for susceptibility by broth microdilution methods following the Clinical and Laboratory Standards Institute (CLSI; M07-A9, 2012) document. Susceptibility testing was performed in cation-adjusted Mueller-Hinton broth (CA-MHB) using dry-form panels manufactured by Thermo Fisher Scientific, formerly TREK Diagnostics Systems/Sensititre (Cleveland. Ohio, USA). These panels provide results equivalent to the CLSI-approved broth microdilution method supplemented with 0.002% polysorbate-80.
(§3) Quality assurance was performed by concurrent testing of CLSI-recommended (M100-S23, 2013) strains: E. faecalis ATCC 29212 and S. aureus ATCC 29213. Interpretation of comparator MIC results was in accordance with published CLSI (M100-S23) and European Committee on Antimicrobial Susceptibility Testing (EUCAST, 2013) criteria.

E. faecalis = type: cell-based, Enterococcus faecalis; details: for % Resistant, CLSI / % Susceptible, CLSI: CLSI M100-S23 breakpoints; for MIC50 / MIC90: Enterococcus faecalis; for MIC50: read-out: MIC 50%; for MIC90: read-out: MIC 90%; for % Resistant, EUCAST / % Susceptible, EUCAST: EUCAST 2013 breakpoints; for % susceptible: E. faecalis strains, criteria not stated
Procedure: as §1, §2, §3

S. aureus = type: cell-based; details: S. aureus Methicillin-resistant (1,708); for % Resistant, CLSI / % Susceptible, CLSI: CLSI M100-S23 breakpoints; for % Resistant, EUCAST / % Susceptible, EUCAST: EUCAST 2013 breakpoints; for MIC50 / MIC90: Staphylococcus aureus; for MIC50: read-out: MIC 50%; for MIC90: read-out: MIC 90%
Procedure: as §1, §2, §3

[1] = tested on: Coagulase-negative staphylococci; type: cell-based, coagulase-negative staphylococci (CoNS); details: Coagulase-negative staphylococci (646); for MIC50: read-out: MIC 50%; for MIC90: read-out: MIC 90%
Procedure: as §1, §2, §3

[2] = E. faecium Vancomycin-resistant (VanA-phenotype) (153)
[3] = E. faecium Vancomycin-susceptible (257)

## CC[C@H]1OC(=O)[C@H](C)[C@@H](O[C@H]2C[C@@](C)(OC)[C@@H](O)[C@H](C)O2)[C@H](C)[C@@H](O[C@@H]2O[C@H](C)C[C@H](N(C)C)[C@H]2O)[C@](C)(O)C[C@@H](C)C(=O)[C@H](C)[C@@H](O)[C@]1(C)O [Erythromycin]
E. faecium; [2]
  % Resistant, CLSI: 98.1%
  % Susceptible, CLSI: 0.0%
  MIC90: > 4 µg/mL
  MIC 50%: >4 µg/mL
E. faecium; [3]
  % Resistant, CLSI: 91.4%
  % Susceptible, CLSI: 3.5%
  MIC50: > 4 µg/mL
  MIC90: > 4 µg/mL
E. faecalis; E. faecalis (445)
  % Resistant, CLSI: 54.8%
  % Susceptible, CLSI: 8.1%
E. faecalis; Table 2, E. faecalis (445)
  MIC50: > 4 µg/mL
  MIC90: > 4 µg/mL
S. aureus
  % Resistant, CLSI: 68.0%
  % Susceptible, CLSI: 29.6%
  % Resistant, EUCAST: 69.1%
  % Susceptible, EUCAST: 29.8%
S. aureus; Table 2
  MIC50: > 4 µg/mL
  MIC90: > 4 µg/mL
[1]; CLSI M100-S23 breakpoints
  % Resistant, CLSI: 65.1%
[1]; Table 2
  MIC50: > 4 µg/mL
  MIC90: > 4 µg/mL

## CC1(C)S[C@@H]2[C@H](NC(=O)[C@H](N)c3ccccc3)C(=O)N2[C@H]1C(=O)O [Ampicillin]
E. faecium; [2]
  % Resistant, CLSI: 100.0%
  % Susceptible, CLSI: 0.0%
  % Resistant, EUCAST: 100.0%
  % Susceptible, EUCAST: 0.0%
  MIC90: > 8 µg/mL
  MIC 50%: >8 µg/mL
  MIC Range: >8 µg/mL
E. faecium; [3]
  % Resistant, CLSI: 94.2%
  % Susceptible, CLSI: 5.8%
  % Resistant, EUCAST: 94.2%
  % Susceptible, EUCAST: 5.4%
  MIC50: > 8 µg/mL
  MIC90: > 8 µg/mL
E. faecalis; E. faecalis (445)
  % Resistant, CLSI: 0.0%
  % Susceptible, CLSI: 100.0%
  % Resistant, EUCAST: 0.0%
  % Susceptible, EUCAST: 99.6%
E. faecalis
  % susceptible: 99.6%
E. faecalis; Table 2, E. faecalis (445)
  MIC50: ≤ 1 µg/mL
  MIC90: 2 µg/mL (≈ 5.72 µM)
  MIC 50%: ≦1 mg/L
E. faecalis; Table 2, E. faecalis (445), includes four VanA-phenotype strains
  MIC Range: ≦1-8 mg/L

## C[C@H]1COc2c(N3CCN(C)CC3)c(F)cc3c(=O)c(C(=O)O)cn1c23 [Levofloxacin]
E. faecium; [2]
  % Resistant, CLSI: 100.0%
  % Susceptible, CLSI: 0.0%
  MIC90: > 4 µg/mL
  MIC 50%: >4 µg/mL
  MIC Range: >4 µg/mL
E. faecium; [3]
  % Resistant, CLSI: 89.1%
  % Susceptible, CLSI: 5.8%
  MIC50: > 4 µg/mL
  MIC90: > 4 µg/mL
E. faecalis; E. faecalis (445)
  % Resistant, CLSI: 35.3%
  % Susceptible, CLSI: 64.3%
E. faecalis; Table 2, E. faecalis (445)
  MIC50: 1 µg/mL (≈ 2.77 µM)
  MIC90: > 4 µg/mL
S. aureus
  % Resistant, CLSI: 90.3%
  % Susceptible, CLSI: 8.6%
  % Resistant, EUCAST: 90.3%
  % Susceptible, EUCAST: 8.6%
S. aureus; Table 2
  MIC50: > 4 µg/mL
  MIC90: > 4 µg/mL
[1]; CLSI M100-S23 breakpoints
  % Resistant, CLSI: 56.2%
[1]; Table 2
  MIC50: 4 µg/mL (≈ 11.1 µM)
  MIC90: > 4 µg/mL

## CN(C)[C@@H]1C(O)=C(C(N)=O)C(=O)[C@@]2(O)C(O)=C3C(=O)c4c(O)cccc4[C@@](C)(O)[C@H]3C[C@@H]12 [Tetracycline]
E. faecium; [2]
  % Resistant, CLSI: 41.5%
  % Susceptible, CLSI: 58.5%
  MIC90: > 8 µg/mL
  MIC 50%: 0.5 µg/mL (≈ 1.13 µM)
E. faecium; [3]
  % Resistant, CLSI: 43.2%
  % Susceptible, CLSI: 56.0%
  MIC50: 0.5 µg/mL (≈ 1.13 µM)
  MIC90: > 8 µg/mL
E. faecalis; E. faecalis (445)
  % Resistant, CLSI: 73.5%
  % Susceptible, CLSI: 26.5%
E. faecalis; Table 2, E. faecalis (445)
  MIC50: > 8 µg/mL
  MIC90: > 8 µg/mL
S. aureus
  % Resistant, CLSI: 14.2%
  % Susceptible, CLSI: 84.9%
  % Resistant, EUCAST: 15.1%
  % Susceptible, EUCAST: 84.4%
S. aureus; Table 2
  MIC50: ≤ 0.25 µg/mL
  MIC90: > 8 µg/mL
[1]; CLSI M100-S23 breakpoints
  % Resistant, CLSI: 15.2%
[1]; Table 2
  MIC50: 1 µg/mL (≈ 2.25 µM)
  MIC90: > 8 µg/mL

## Teicoplanin
E. faecium; [2]
  % Resistant, CLSI: 96.2%
  % Susceptible, CLSI: 0.0%
  % Resistant, EUCAST: 100.0%
  % Susceptible, EUCAST: 0.0%
  MIC 50%: >8 µg/mL
  MIC 90%: >8 µg/mL
  MIC Range: >8 µg/mL
E. faecium; [3]
  % Resistant, CLSI: 0.0%
  % Susceptible, CLSI: 100.0%
  % Resistant, EUCAST: 0.4%
  % Susceptible, EUCAST: 99.6%
  MIC 50%: ≦2 mg/L
  MIC 90%: ≦2 mg/L
  MIC Range: ≦2-4 mg/L
E. faecalis; E. faecalis (445)
  % Resistant, CLSI: 0.9%
  % Susceptible, CLSI: 99.1%
  % Resistant, EUCAST: 0.9%
  % Susceptible, EUCAST: 99.1%
E. faecalis
  % susceptible: 99.1%
E. faecalis; Table 2, E. faecalis (445)
  MIC 50%: ≦2 mg/L
  MIC 90%: ≦2 mg/L
S. aureus
  % Resistant, CLSI: 0.0%
  % Susceptible, CLSI: 100.0%
  % Resistant, EUCAST: 0.0%
  % Susceptible, EUCAST: 100.0%
S. aureus; Table 2
  MIC 50%: ≦2 mg/L
  MIC 90%: ≦2 mg/L
  MIC Range: ≦2 mg/L
[1]; CLSI M100-S23 breakpoints
  % Resistant, CLSI: 0.8%
  % Susceptible, CLSI: 97.7%
[1]; EUCAST 2013 breakpoints
  % Resistant, EUCAST: 11.1%
  % Susceptible, EUCAST: 88.9%
[1]; Table 2
  MIC 50%: ≦2 mg/L
  MIC 90%: 8 µg/mL

## Cc1onc(-c2ccccc2)c1C(=O)N[C@@H]1C(=O)N2[C@@H]1SC(C)(C)[C@@H]2C(=O)O [Oxacillin]
[1]; CLSI M100-S23 breakpoints
  % Resistant, CLSI: 78.8%
[1]; Table 2
  MIC50: > 2 µg/mL
  MIC90: > 2 µg/mL

## CCC[C@@H]1C[C@@H](C(=O)N[C@@H]([C@H]2O[C@H](SC)[C@H](O)[C@@H](O)[C@H]2O)[C@H](C)Cl)N(C)C1 [Clindamycin]
S. aureus
  % Resistant, CLSI: 40.3%
  % Susceptible, CLSI: 59.1%
  % Resistant, EUCAST: 40.9%
  % Susceptible, EUCAST: 58.9%
S. aureus; Table 2
  MIC50: ≤ 0.25 µg/mL
  MIC90: > 2 µg/mL
[1]; CLSI M100-S23 breakpoints
  % Resistant, CLSI: 26.0%
[1]; Table 2
  MIC50: ≤ 0.25 µg/mL
  MIC90: > 2 µg/mL
